Source: patent US11993599B2, “Therapeutic compounds” (Genentech, Inc., priority 2021, dated 2024)

Columns and labels:
Format in all cases: cell-based
BRM [1] = molecular target: T1, BRM (Homo sapiens, UniProt P51531); test: HiBIT nanoluciferase complementation screen for BRM degraders; details: 18 hours, BRM-HiBIT KI Hela cells, luminescence normalized: DMSO only = 0%, no cells = −100%; for Median HiBiT activity 1 μM: compound 1 μM; for Median HiBiT activity 10 μM: compound 10 μM
Description: Example B-1: HiBIT Nanoluciferase Complementation Screen for BRM Degraders
To assess BRM degradation, compounds were screened for their effect of BRM levels using the HiBIT nanoluciferase complementation strategy developed at Promega. In brief, a HELA cell line that was genetically modified via CRISPR/CAS9 was used to fuse the HiBIT sequence at the 3′ end of BRM (BRM-HiBIT KI Hela). BRM protein levels were then detected using the Nano-Glo HiBIT lytic detection reagent (Promega).
The screened compounds were plated into a white 384-well plate at 10 μM and 1 μM in 25 nL DMSO using an Echo dispenser (Labcyte). BRM-HiBIT KI Hela cells were seeded in the compound plate at 5000 cell per well at 25 μl in DMEM growth media (containing 10% FBS, 1% Glutamax (GIBCO cat #31053-028), lx Penicillin-Streptomycin (ROCHE, cat #1107444001), 4.5 g/L D-Glucose, and no phenol red). After incubation with compounds for 18 hours at 37° C., cell viability was assessed by the addition of 5 μl Cell Titer-Fluor reagent (Promega). After 30 s of mixing on an orbital shaker, and 30 minutes incubation at 37° C., fluorescence was measured with an INFINITE F500 (Tecan) (380-400 nm excitation, 505 nm emission). Next, to assess BRM HiBIT levels, 30 μl of Nano-Glo HiBIT lytic detection reagent (Promega) containing 1:50 Nano-Glo HiBIT lytic substrate and 1:100 LgBIT protein per ml of lytic buffer was added. After shaking on an orbital shaker at 350 rpm for 10 minutes, luminescence was measured on the INFINITE F500 (Tecan). To assess compound effects, luminescence signal was normalized with the mean of wells treated with DMSO only set to 0% and the mean of wells containing no cells set to −100%. Note that, in Table 4, the “Compound Number” corresponds to that used in Table 1.

BRG1 = molecular target: T2, BRG1 (Homo sapiens, UniProt P51532); test: Immunofluorescence assay for BRG1 degradation in SW1573 cells; details: 20 hours incubation; for DC50: immunofluorescence mean nuclear signal, read-out: BRG1 IF Degradation IC50; for Dmax: SW1573, 20 h, normalized to a known degrader control, read-out: BRG1 IF Degradation Sinf (%)
T2 construct: either BRM primary antibody (Cell signaling Cat #11966) or BRG primary antibody (Abcam, ab 110641); endogenous in cells; host or cells: SW1573
T2 sequence (P51532 whole entry): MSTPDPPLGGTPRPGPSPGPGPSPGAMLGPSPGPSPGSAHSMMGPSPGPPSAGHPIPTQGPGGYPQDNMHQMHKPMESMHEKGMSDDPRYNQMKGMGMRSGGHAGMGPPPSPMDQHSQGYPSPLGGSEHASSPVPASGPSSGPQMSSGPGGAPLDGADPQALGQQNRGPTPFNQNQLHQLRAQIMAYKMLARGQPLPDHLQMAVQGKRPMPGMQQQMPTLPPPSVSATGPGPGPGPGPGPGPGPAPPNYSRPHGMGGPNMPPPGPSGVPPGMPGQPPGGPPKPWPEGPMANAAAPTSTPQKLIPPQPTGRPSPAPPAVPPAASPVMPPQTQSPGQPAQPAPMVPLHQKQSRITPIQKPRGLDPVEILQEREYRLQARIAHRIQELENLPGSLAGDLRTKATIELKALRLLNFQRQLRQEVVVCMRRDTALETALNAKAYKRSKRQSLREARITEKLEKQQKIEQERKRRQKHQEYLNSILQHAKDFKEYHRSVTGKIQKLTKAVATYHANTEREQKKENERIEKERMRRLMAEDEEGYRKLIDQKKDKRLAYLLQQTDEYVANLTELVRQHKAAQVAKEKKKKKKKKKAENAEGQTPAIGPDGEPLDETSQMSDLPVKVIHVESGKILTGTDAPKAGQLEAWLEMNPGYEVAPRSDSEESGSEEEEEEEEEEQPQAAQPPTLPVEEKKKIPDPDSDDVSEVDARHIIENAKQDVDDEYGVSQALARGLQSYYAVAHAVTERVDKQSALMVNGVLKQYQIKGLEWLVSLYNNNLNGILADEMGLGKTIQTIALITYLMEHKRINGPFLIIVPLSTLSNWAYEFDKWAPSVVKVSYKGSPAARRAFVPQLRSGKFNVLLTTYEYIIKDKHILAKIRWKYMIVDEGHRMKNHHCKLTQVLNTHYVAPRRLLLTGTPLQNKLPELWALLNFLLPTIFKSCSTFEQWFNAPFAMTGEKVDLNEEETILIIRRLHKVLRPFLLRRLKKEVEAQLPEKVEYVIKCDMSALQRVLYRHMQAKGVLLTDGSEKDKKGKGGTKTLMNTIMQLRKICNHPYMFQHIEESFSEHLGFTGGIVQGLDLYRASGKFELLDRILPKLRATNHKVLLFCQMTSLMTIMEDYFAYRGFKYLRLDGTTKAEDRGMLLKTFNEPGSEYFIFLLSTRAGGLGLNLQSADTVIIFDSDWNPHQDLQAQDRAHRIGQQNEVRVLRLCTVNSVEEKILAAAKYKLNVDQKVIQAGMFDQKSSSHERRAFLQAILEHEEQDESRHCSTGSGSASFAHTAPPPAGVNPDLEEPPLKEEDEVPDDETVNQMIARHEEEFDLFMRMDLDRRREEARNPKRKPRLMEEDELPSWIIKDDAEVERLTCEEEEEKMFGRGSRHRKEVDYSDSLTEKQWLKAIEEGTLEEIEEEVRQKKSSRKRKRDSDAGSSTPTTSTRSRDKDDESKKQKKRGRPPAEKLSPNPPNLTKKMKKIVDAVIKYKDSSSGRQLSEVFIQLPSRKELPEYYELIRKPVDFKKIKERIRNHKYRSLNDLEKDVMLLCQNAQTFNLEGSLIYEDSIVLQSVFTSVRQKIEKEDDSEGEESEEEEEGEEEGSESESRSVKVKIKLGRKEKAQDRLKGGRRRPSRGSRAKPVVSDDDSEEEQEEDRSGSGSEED
Method in brief: (§1)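 Imaging-based readout in SW1573: 20 h dosing, formaldehyde fixation, antibody staining for either remodeler, nuclear intensity per cell quantified. Values normalized to control degrader; floating-maximum fit.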

BRM [2] = molecular target: T1, BRM; test: Immunofluorescence assay for BRM degradation in SW1573 cells; design: treated overnight at 4° C. with either BRM primary antibody (Cell signaling Cat #11966) or BRG primary antibody; endogenous in cells; host or cells: SW1573; details: 20 hours incubation; for DC50: immunofluorescence mean nuclear signal, read-out: BRM IF Degradation IC50; for BRM IF Degradation Sinf (%): normalized to a known degrader control
Method in brief: as §1

T1 sequence (P51531 whole entry): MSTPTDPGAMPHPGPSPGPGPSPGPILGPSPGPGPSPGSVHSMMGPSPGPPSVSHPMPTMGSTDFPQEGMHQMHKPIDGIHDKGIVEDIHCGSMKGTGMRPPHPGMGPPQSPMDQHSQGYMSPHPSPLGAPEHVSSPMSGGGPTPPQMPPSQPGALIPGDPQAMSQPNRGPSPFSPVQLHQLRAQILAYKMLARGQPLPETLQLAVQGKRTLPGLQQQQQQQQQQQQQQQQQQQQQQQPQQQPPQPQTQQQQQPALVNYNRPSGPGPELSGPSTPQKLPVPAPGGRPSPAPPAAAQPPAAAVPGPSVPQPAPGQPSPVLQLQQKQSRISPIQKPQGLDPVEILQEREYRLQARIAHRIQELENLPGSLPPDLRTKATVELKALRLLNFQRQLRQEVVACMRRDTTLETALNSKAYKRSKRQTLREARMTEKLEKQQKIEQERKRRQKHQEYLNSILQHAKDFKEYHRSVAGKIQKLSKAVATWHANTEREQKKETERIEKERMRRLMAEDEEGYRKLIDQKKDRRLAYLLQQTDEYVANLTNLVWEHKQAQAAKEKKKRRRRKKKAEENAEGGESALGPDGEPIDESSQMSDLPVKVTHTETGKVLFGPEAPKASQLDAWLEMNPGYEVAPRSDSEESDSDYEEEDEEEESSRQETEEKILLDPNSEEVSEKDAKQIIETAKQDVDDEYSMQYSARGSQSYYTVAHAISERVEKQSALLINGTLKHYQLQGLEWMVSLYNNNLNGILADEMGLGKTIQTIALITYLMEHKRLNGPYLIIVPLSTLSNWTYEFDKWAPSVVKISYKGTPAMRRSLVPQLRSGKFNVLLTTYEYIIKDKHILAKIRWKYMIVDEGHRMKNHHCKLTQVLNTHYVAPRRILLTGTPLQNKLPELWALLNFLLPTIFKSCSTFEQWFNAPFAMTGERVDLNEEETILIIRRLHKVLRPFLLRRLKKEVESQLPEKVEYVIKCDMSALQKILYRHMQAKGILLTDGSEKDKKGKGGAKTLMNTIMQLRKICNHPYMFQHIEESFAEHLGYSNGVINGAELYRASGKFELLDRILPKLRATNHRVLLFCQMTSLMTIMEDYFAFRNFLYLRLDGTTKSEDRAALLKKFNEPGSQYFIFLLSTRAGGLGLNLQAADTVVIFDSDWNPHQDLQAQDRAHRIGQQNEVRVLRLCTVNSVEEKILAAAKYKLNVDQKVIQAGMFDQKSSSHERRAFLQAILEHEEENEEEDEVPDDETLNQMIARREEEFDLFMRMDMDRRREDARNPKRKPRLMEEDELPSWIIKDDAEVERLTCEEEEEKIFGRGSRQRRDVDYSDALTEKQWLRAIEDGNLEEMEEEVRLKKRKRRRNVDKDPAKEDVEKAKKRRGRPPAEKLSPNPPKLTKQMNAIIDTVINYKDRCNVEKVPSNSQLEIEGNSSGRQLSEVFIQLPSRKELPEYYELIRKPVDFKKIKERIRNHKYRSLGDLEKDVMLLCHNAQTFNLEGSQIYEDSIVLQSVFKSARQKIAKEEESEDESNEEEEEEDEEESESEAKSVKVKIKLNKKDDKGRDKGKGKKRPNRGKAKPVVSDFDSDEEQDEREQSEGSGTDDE

Compound: Nc1nnc(-c2ccccc2O)cc1N1CC2CCC(C1)N2c1ccnc(C#CC2CCCNC2)c1 (stereo not shown) [Compound 8, 2-(6-amino-5-(8-(2-(piperidin-3-ylethynyl)pyridin-4-yl)-3,8-diazabicyclo[3.2.1]octan-3-yl)pyridazin-3-yl)phenol]
- Median HiBiT activity 1 μM (BRM [1]): −51.6794%
- Median HiBiT activity 10 μM (BRM [1]): −23.8415%
- DC50 (BRG1): > 100 nM
- DC50 (BRM [2]): 10 to 100 nM
- BRM IF Degradation Sinf (%) (BRM [2]): E (E indicates −30%-−70%)

Compound: Nc1nnc(-c2ccccc2O)cc1N1CC2CCC(C1)N2c1ccnc(C#CCN2CCOCC2)c1 [Compound 9, 2-(6-amino-5-(8-(2-(3-morpholinoprop-1-yn-1-yl)pyridin-4-yl)-3,8-diazabicyclo[3.2.1]octan-3-yl)pyridazin-3-yl)phenol]
- Median HiBiT activity 1 μM (BRM [1]): −50.6553%
- Median HiBiT activity 10 μM (BRM [1]): −33.5251%
- DC50 (BRG1): < 10 nM
- Dmax (BRG1): 0 to 30%
- DC50 (BRM [2]): 10 to 100 nM
- BRM IF Degradation Sinf (%) (BRM [2]): E (E indicates −30%-−70%)

Compound: Nc1nnc(-c2ccccc2O)cc1N1CC2CCC(C1)N2c1ccnc(C#CCN2CCNCC2=O)c1 [Compound 10, 1-(3-(4-(3-(3-amino-6-(2-hydroxyphenyl)pyridazin-4-yl)-3,8-diazabicyclo[3.2.1]octan-8-yl)pyridin-2-yl)prop-2-yn-1-yl)piperazin-2-one]
- Median HiBiT activity 1 μM (BRM [1]): −50.554%
- Median HiBiT activity 10 μM (BRM [1]): −56.7556%
- DC50 (BRG1): > 100 nM
- DC50 (BRM [2]): 10 to 100 nM
- BRM IF Degradation Sinf (%) (BRM [2]): E (E indicates −30%-−70%)

Compound: NCCCCCCC#Cc1cc(N2C3CCC2CN(c2cc(-c4ccccc4O)nnc2N)C3)ccn1 [Compound 11, 2-(6-amino-5-(8-(2-(8-aminooct-1-yn-1-yl)pyridin-4-yl)-3,8-diazabicyclo[3.2.1]octan-3-yl)pyridazin-3-yl)phenol]
- Median HiBiT activity 1 μM (BRM [1]): −46.2503%
- Median HiBiT activity 10 μM (BRM [1]): −53.1423%
- DC50 (BRG1): 10 to 100 nM
- Dmax (BRG1): 30 to 70%
- DC50 (BRM [2]): 10 to 100 nM
- BRM IF Degradation Sinf (%) (BRM [2]): F (F indicates −71%-−120%)

Compound: Nc1nnc(-c2ccccc2O)cc1N1CC2CCC(C1)N2c1ccnc(C#CCOC2CCCNC2)c1 (stereo not shown) [Compound 12, 2-(6-amino-5-(8-(2-(3-(piperidin-3-yloxy)prop-1-yn-1-yl)pyridin-4-yl)-3,8-diazabicyclo[3.2.1]octan-3-yl)pyridazin-3-yl)phenol]
- Median HiBiT activity 1 μM (BRM [1]): −45.7932%
- Median HiBiT activity 10 μM (BRM [1]): −34.0604%
- DC50 (BRG1): 10 to 100 nM
- Dmax (BRG1): 0 to 30%
- DC50 (BRM [2]): 10 to 100 nM
- BRM IF Degradation Sinf (%) (BRM [2]): E (E indicates −30%-−70%)

Compound: Nc1nnc(-c2ccccc2O)cc1N1CC2CCC(C1)N2c1ccnc(C#CCC2CCCCN2)c1 (stereo not shown) [Compound 13, 2-(6-amino-5-(8-(2-(3-(piperidin-2-yl)prop-1-yn-1-yl)pyridin-4-yl)-3,8-diazabicyclo[3.2.1]octan-3-yl)pyridazin-3-yl)phenol]
- Median HiBiT activity 1 μM (BRM [1]): −44.9864%
- Median HiBiT activity 10 μM (BRM [1]): −32.1865%
- DC50 (BRG1): 10 to 100 nM
- Dmax (BRG1): 0 to 30%
- DC50 (BRM [2]): 10 to 100 nM
- BRM IF Degradation Sinf (%) (BRM [2]): E (E indicates −30%-−70%)

Compound: Nc1nnc(-c2ccccc2O)cc1N1CC2CCC(C1)N2c1ccnc(C#CC2CCCN2)c1 (stereo not shown) [Compound 14, 2-(6-amino-5-(8-(2-(pyrrolidin-2-ylethynyl)pyridin-4-yl)-3,8-diazabicyclo[3.2.1]octan-3-yl)pyridazin-3-yl)phenol]
- Median HiBiT activity 1 μM (BRM [1]): −42.9269%
- Median HiBiT activity 10 μM (BRM [1]): −50.5501%
- DC50 (BRG1): 10 to 100 nM
- Dmax (BRG1): 0 to 30%
- DC50 (BRM [2]): < 10 nM
- BRM IF Degradation Sinf (%) (BRM [2]): E (E indicates −30%-−70%)

Compound: Nc1nnc(-c2ccccc2O)cc1N1CC2CCC(C1)N2c1ccnc(C#CCN2CCC(N)C2)c1 (stereo not shown) [Compound 15, 2-(6-amino-5-(8-(2-(3-(3-aminopyrrolidin-1-yl)prop-1-yn-1-yl)pyridin-4-yl)-3,8-diazabicyclo[3.2.1]octan-3-yl)pyridazin-3-yl)phenol]
- Median HiBiT activity 1 μM (BRM [1]): −41.5313%
- Median HiBiT activity 10 μM (BRM [1]): −55.0083%
- DC50 (BRG1): > 100 nM
- Dmax (BRG1): 0 to 30%
- DC50 (BRM [2]): > 100 nM
- BRM IF Degradation Sinf (%) (BRM [2]): E (E indicates −30%-−70%)

Compound: Nc1nnc(-c2ccccc2O)cc1N1CC2CCC(C1)N2c1ccnc(C#CCC2CCCN2)c1 (stereo not shown) [Compound 16, 2-(6-amino-5-(8-(2-(3-(pyrrolidin-2-yl)prop-1-yn-1-yl)pyridin-4-yl)-3,8-diazabicyclo[3.2.1]octan-3-yl)pyridazin-3-yl)phenol]
- Median HiBiT activity 1 μM (BRM [1]): −38.7074%
- Median HiBiT activity 10 μM (BRM [1]): −29.4258%
- DC50 (BRG1): 10 to 100 nM
- Dmax (BRG1): 0 to 30%
- DC50 (BRM [2]): 10 to 100 nM
- BRM IF Degradation Sinf (%) (BRM [2]): E (E indicates −30%-−70%)

Compound: Nc1nnc(-c2ccccc2O)cc1N1CC2CCC(C1)N2c1ccnc(C#CC2CCN2)c1 (stereo not shown) [Compound 17, 2-(6-amino-5-(8-(2-(azetidin-2-ylethynyl)pyridin-4-yl)-3,8-diazabicyclo[3.2.1]octan-3-yl)pyridazin-3-yl)phenol]
- Median HiBiT activity 1 μM (BRM [1]): −37.0864%
- Median HiBiT activity 10 μM (BRM [1]): −51.9890%
- DC50 (BRG1): 10 to 100 nM
- Dmax (BRG1): 0 to 30%
- DC50 (BRM [2]): 10 to 100 nM
- BRM IF Degradation Sinf (%) (BRM [2]): E (E indicates −30%-−70%)

Compound: Nc1nnc(-c2ccccc2O)cc1N1CC2CCC(C1)N2c1ccnc(C#CCN2CCS(=O)(=O)CC2)c1 [Compound 18, 4-(3-(4-(3-(3-amino-6-(2-hydroxyphenyl)pyridazin-4-yl)-3,8-diazabicyclo[3.2.1]octan-8-yl)pyridin-2-yl)prop-2-yn-1-yl)thiomorpholine1,1-dioxide]
- Median HiBiT activity 1 μM (BRM [1]): −37.0807%
- Median HiBiT activity 10 μM (BRM [1]): −56.4043%
- DC50 (BRG1): > 100 nM
- DC50 (BRM [2]): > 100 nM
- BRM IF Degradation Sinf (%) (BRM [2]): E (E indicates −30%-−70%)

Compound: Nc1nnc(-c2ccccc2O)cc1N1CC2CCC(C1)N2c1ccnc(C#CC2CCNCC2)c1 [Compound 19, 2-(6-amino-5-(8-(2-(piperidin-4-ylethynyl)pyridin-4-yl)-3,8-diazabicyclo[3.2.1]octan-3-yl)pyridazin-3-yl)phenol]
- Median HiBiT activity 1 μM (BRM [1]): −36.9943%
- Median HiBiT activity 10 μM (BRM [1]): −56.3342%
- DC50 (BRG1): > 100 nM
- Dmax (BRG1): 30 to 70%
- DC50 (BRM [2]): 10 to 100 nM
- BRM IF Degradation Sinf (%) (BRM [2]): E (E indicates −30%-−70%)

Compound: NCCCCCCc1cc(N2C3CCC2CN(c2cc(-c4ccccc4O)nnc2N)C3)ccn1 [Compound 20, 2-(6-amino-5-(8-(2-(6-aminohexyl)pyridin-4-yl)-3,8-diazabicyclo[3.2.1]octan-3-yl)pyridazin-3-yl)phenol]
- Median HiBiT activity 1 μM (BRM [1]): −33.3403%
- Median HiBiT activity 10 μM (BRM [1]): −8.91%
- DC50 (BRG1): 10 to 100 nM
- Dmax (BRG1): 71 to 120%
- DC50 (BRM [2]): 10 to 100 nM
- BRM IF Degradation Sinf (%) (BRM [2]): F (F indicates −71%-−120%)

Compound: Cn1cc(C#Cc2cc(N3C4CCC3CN(c3cc(-c5ccccc5O)nnc3N)C4)ccn2)cn1 [Compound 21, 2-(6-amino-5-(8-(2-((1-methyl-1H-pyrazol-4-yl)ethynyl)pyridin-4-yl)-3,8-diazabicyclo[3.2.1]octan-3-yl)pyridazin-3-yl)phenol]
- Median HiBiT activity 1 μM (BRM [1]): −32.7297%
- Median HiBiT activity 10 μM (BRM [1]): −42.1813%
- DC50 (BRG1): 10 to 100 nM
- Dmax (BRG1): 0 to 30%
- DC50 (BRM [2]): > 100 nM

Compound: Nc1nnc(-c2ccccc2O)cc1N1CC2CCC(C1)N2c1ccnc(C#CC2CCOCC2)c1 [Compound 22, 2-(6-amino-5-(8-(2-((tetrahydro-2H-pyran-4-yl)ethynyl)pyridin-4-yl)-3,8-diazabicyclo[3.2.1]octan-3-yl)pyridazin-3-yl)phenol]
- Median HiBiT activity 1 μM (BRM [1]): −30.6701%
- Median HiBiT activity 10 μM (BRM [1]): −33.6373%
- DC50 (BRG1): > 100 nM
- Dmax (BRG1): 0 to 30%
- DC50 (BRM [2]): > 100 nM
